pIC50: −log10 of the molar value.
system: Phosphorylated Ribosomal Protein S6 (RPS6) in THP-1 cells; assay: THP-1 RPS6 ELISA Assay; format: cell-based; conditions: Homo sapiens, 2 hours with compound, 10 nM MCP-1 for 15 minutes, read-out: THP p-RPS6 ELISA IC50
Procedure: To measure the Phosphorylated Ribosomal Protein S6 (RPS6) in cell lysates, THP-1 cells (Human Acute Monocytic Leukemia) are purchased from ATCC (Manassas, Va.) and maintained in RPMI with 10% FBS (Gibco/Life Technologies, Carlsbad, Calif.). For the assay, THP-1 cells are serum starved overnight in RPMI, then plated in RPMI (2×10^5 cells/well in 90 μL) into 96-well flat-bottom tissue culture treated plates (Corning, Corning, N.Y.), in the presence or absence of a concentration range of test compounds. Covered plates are incubated for 2 hours at 37° C., 5% CO2 then treated with or without 10 nM MCP-1 (MYBioSource, San Diego, Calif.) for 15 minutes at 37° C., 5% CO2. Plates are centrifuged at 1600 RPM and supernatants are removed. Cells are lysed in Lysis Buffer (Cell Signaling, Danvers, Mass.) with Protease Inhibitor (Calbiochem/EMD, Germany), PMSF (Sigma, St. Louis, Mo.), HALTS (Thermo Fisher, Rockford, Ill.) for 30 min on wet ice. Cell lysates are frozen at −80° C. before testing. The lysates are tested in the Human/Mouse/Rat Phospho-RPS6 ELISA (R&D Systems, Inc. Minn, Minn.). The plate is measured using a microplate reader (SpectraMax M5—Molecular Devices, LLC Sunnyvale, Calif.) set to 450 nm with a wavelength correction of 540. IC50 determination is performed by fitting the curve of inhibitor percent inhibition versus the log of the inhibitor concentration using the GraphPad Prism 5.0 software.

Structure (SMILES) | pIC50
CN(C)S(=O)(=O)Nc1cncc(-c2ccc3nc(-c4nc5ccccc5[nH]4)oc3c2)c1 [Example 21, N′-{5-[2-(1H-Benzimidazol-2-yl)-1,3-benzoxazol-6-yl]-pyridin-3-yl}-N,N-dimethylsulfamide] | > 6.00
O=S(=O)(Nc1cc(-c2ccc3nc(-c4nc5ccccc5[nH]4)oc3c2)cnc1F)c1ccc(F)cc1 [Example 30, N-(5-(2-(1H-Benzo[d]imidazol-2-yl)benzo[d]oxazol-6-yl)-2-fluoropyridin-3-yl)-4-fluorobenzene-sulfonamide] | > 6.00
Cc1ncc(-c2ccc3nc(-c4nc5ccccc5[nH]4)oc3c2)cc1NS(=O)(=O)c1ccc(F)cc1 [Example 28, N-(5-(2-(1H-Benzo[d]imdiazol-2-yl)benzo[d]oxazol-6-yl)-2-methylpyridin-3-yl)-4-fluorobenzene-sulfonamide] | > 6.00
O=S(=O)(Nc1cncc(-c2ccc3nc(-c4nc5ccccc5[nH]4)oc3c2)c1)N1CCCCC1 [Example 20, N-(5-(2-(1H-Benzo[d]imidazol-2-yl)benzo[d]oxazol-6-yl)pyridin-3-yl)piperidine-1-sulfonamide] | > 5.30
Cc1ncc(-c2ccc3nc(-c4nc5ccccc5[nH]4)oc3c2)cc1NS(=O)(=O)N(C)C [Example 22, N′-{5-[2-(1H-Benzimidazol-2-yl)-1,3-benzoxazol-6-yl]-2-methylpyridin-3-yl}-N,N-dimethylsulfamide] | > 6.00
CN1CCN(S(=O)(=O)Nc2cncc(-c3ccc4nc(-c5nc6ccccc6[nH]5)oc4c3)c2)CC1 [Example 31, N-(5-(2-(1H-Benzo[d]imidazol-2-yl)benzo[d]oxazol-6-yl)pyridin-3-yl)-4-methylpiperazine-1-sulfonamide] | > 6.00
CS(=O)(=O)c1cncc(-c2ccc3nc(-c4nc5ccccc5[nH]4)oc3c2)c1 [Example 36, 2-(1H-Benzo[d]imidazol-2-yl)-6-(5-(methylsulfonyl)pyridin-3-yl)benzo[d]oxazole] | > 5.30
CN(C)S(=O)(=O)Nc1cc(-c2ccc3nc(-c4nc5ccccc5[nH]4)oc3c2)cnc1F [Example 23, N′-{5-[2-(1H-Benzimidazol-2-yl)-1,3-benzoxazol-6-yl]-2-fluoropyridin-3-yl}-N,N-dimethylsulfamide] | > 6.00
N#Cc1cncc(-c2ccc3nc(-c4nc5ccccc5[nH]4)oc3c2)c1 [Example 35, 5-(2-(1H-Benzo[d]imidazol-2-yl)benzo[d]oxazol-6-yl)nicotinonitrile] | > 5.30
CC(C)S(=O)(=O)Nc1cncc(-c2ccc3nc(-c4nc5ccccc5[nH]4)oc3c2)c1 [Example 24, N-(5-(2-(1H-Benzo[d]imidazol-2-yl)benzo[d]oxazol-6-yl)pyridin-3-yl)propane-2-sulfonamide] | ≤ 5.30
CCS(=O)(=O)Nc1cc(-c2ccc3nc(-c4nc5ccccc5[nH]4)oc3c2)cnc1C [Example 25, N-(5-(2-(1H-Benzo[d]imidazol-2-yl)benzo[d]oxazol-6-yl)-2-methylpyridin-3-yl)ethanesulfonamide] | > 5.30
CN1CCN(S(=O)(=O)Nc2cc(-c3ccc4nc(-c5nc6ccccc6[nH]5)oc4c3)cnc2F)CC1 [Example 32, N-(5-(2-(1H-Benzo[d]imidazol-2-yl)benzo[d]oxazol-6-yl)-2-fluoropyridin-3-yl)-4-methylpiperazine-1-sulfonamide] | > 6.00
O=S(=O)(Nc1cc(-c2ccc3nc(-c4nc5ccccc5[nH]4)oc3c2)cnc1Cl)c1ccc(F)cc1 [Example 29, N-(5-(2-(1H-Benzo[d]imidazol-2-yl)benzo[d]oxazol-6-yl)-2-chloropyridin-3-yl)-4-fluorobenzene-sulfonamide] | > 6.00
CC(C)Oc1cncc(-c2ccc3nc(-c4nc5ccccc5[nH]4)oc3c2)c1 [Example 15, 2-(1H-Benzo[d]imidazol-2-yl)-6-(5-isopropoxypyridin-3-yl)benzo[d]oxazole] | > 5.30

Results, then the compound that gave them:

pIC50 | Structure (SMILES)
≤ 5.30 | CCS(=O)(=O)Nc1cc(-c2ccc3nc(-c4nc5ccccc5[nH]4)oc3c2)ccc1F [Example 60, N-{5-[2-(1H-Benzimidazol-2-yl)-1,3-benzoxazol-6-yl]-2-fluorophenyl}ethanesulfonamide]
> 6.00 | OC(c1cncc(-c2ccc3nc(-c4ncc[nH]4)oc3c2)c1)C(F)(F)F (stereo not drawn) [Example 61, 1-(5-(2-(1H-Imidazol-2-yl)benzo[d]oxazol-6-yl)pyridin-3-yl)-2,2,2-trifluoroethanol bis(trifluoroacetate)]
> 5.30 | CCS(=O)(=O)Nc1cc(-c2ccc3nc(-c4nc5c([nH]4)CCCC5)oc3c2)cnc1OC [Example 66, N-(2-Methoxy-5-(2-(4,5,6,7-tetrahydro-1H-benzo[d]imidazol-2-yl)benzo[d]oxazol-6-yl)pyridin-3-yl)ethanesulfonamide]
≤ 5.30 | CCn1ncc2ccc(-c3ccc4nc(-c5nc6ccccc6[nH]5)oc4c3)cc21 [Example 54, 2-(1H-Benzimidazol-2-yl)-6-(1-ethyl-1H-indazol-6-yl)-1,3-benzoxazole bis(trifluoroacetate)]
> 6.00 | CN(C)S(=O)(=O)Nc1cncc(-c2ccc3nc(-c4ncc[nH]4)oc3c2)c1 [Example 41, N′-{5-[2-(1H-Imidazol-2-yl)-1,3-benzoxazol-6-yl]pyridin-3-yl}-N,N-dimethylsulfamide]
> 6.00 | Cc1nc(-c2nc3ccc(-c4cncc(C(O)C(F)(F)F)c4)cc3o2)[nH]c1C (stereo not drawn) [Example 67, 1-(5-(2-(4,5-Dimethyl-1H-imidazol-2-yl)benzo[d]oxazol-6-yl)pyridin-3-yl)-2,2,2-trifluoroethanol bis(trifluoroacetate)]
≤ 5.30 | Nc1ncc(-c2ccc3nc(-c4nc5ccccc5[nH]4)oc3c2)cc1C(F)(F)F [Example 56, 5-[2-(1H-Benzimidazol-2-yl)-1,3-benzoxazol-6-yl]-3-(trifluoromethyl)pyridin-2-amine bis(trifluoroacetate)]
> 6.00 | O=S(=O)(Nc1cncc(-c2ccc3nc(-c4ncc[nH]4)oc3c2)c1)c1ccc(F)cc1 [Example 39, N-(5-(2-(1H-Imidazol-2-yl)benzo[d]oxazol-6-yl)pyridin-3-yl)-4-fluorobenzenesulfonamide]
> 6.00 | Cc1ncc(-c2ccc3nc(-c4nc5ccccc5[nH]4)oc3c2)cc1NS(=O)(=O)CC(F)(F)F [Example 76, N-(5-(2-(1H-Benzo[d]imidazol-2-yl)benzo[d]oxazol-6-yl)-2-methylpyridin-3-yl)-2,2,2-trifluoroethanesulfonamide bis(trifluoroacetate)]
> 6.00 | O=S(=O)(CC(F)(F)F)Nc1cc(-c2ccc3nc(-c4nc5ccccc5[nH]4)oc3c2)cnc1F [Example 75, N-(5-(2-(1H-Benzo[d]imidazol-2-yl)benzo[d]oxazol-6-yl)-2-fluoropyridin-3-yl)-2,2,2-trifluoroethanesulfonamide bis(trifluoroacetate)]
≤ 5.30 | c1ccc(Cn2cc(-c3ccc4nc(-c5nc6ccccc6[nH]5)oc4c3)cn2)cc1 [Example 48, 2-(1H-Benzimidazol-2-yl)-6-(1-benzyl-1H-pyrazol-4-yl)-1,3-benzoxazole]
≤ 5.30 | CCS(=O)(=O)Nc1cc(-c2ccc3nc(-c4nc5ccccc5[nH]4)oc3c2)cc(F)c1OC [Example 80, N-(5-(2-(1H-Benzo[d]imidazol-2-yl)benzo[d]oxazol-6-yl)-3-fluoro-2-methoxyphenyl)ethanesulfonamide bis(trifluoroacetate)]
> 5.30 | CCS(=O)(=O)Nc1cncc(-c2ccc3nc(-c4ncc[nH]4)oc3c2)c1 [Example 40, N-(5-(2-(1H-Imidazol-2-yl)benzo[d]oxazol-6-yl)pyridin-3-yl)ethanesulfonamide]
≤ 5.30 | CP(C)(=O)c1cncc(-c2ccc3nc(-c4nc5ccccc5[nH]4)oc3c2)c1 [Example 72, 2-(1H-Benzo[d]imidazol-2-yl)-6-(5-(dimethylphosphoryl)pyridin-3-yl)benzo[d]oxazole bis(trifluoroacetate)]
> 6.00 | CCS(=O)(=O)Nc1cc(-c2ccc3nc(-c4nc(C)c(C)[nH]4)oc3c2)cnc1OC [Example 65, N-(5-(2-(4,5-Dimethyl-1H-imidazol-2-yl)benzo[d]oxazol-6-yl)-2-methoxypyridin-3-yl)ethanesulfonamide bis(trifluoroacetate)]
> 6.00 | O=S(=O)(CC(F)(F)F)Nc1cncc(-c2ccc3nc(-c4nc5ccccc5[nH]4)oc3c2)c1 [Example 77, N-(5-(2-(1H-Benzo[d]imidazol-2-yl)benzo[d]oxazol-6-yl)pyridin-3-yl)-2,2,2-trifluoroethanesulfonamide bis(trifluoroacetate)]
≤ 5.30 | COc1cc(-c2ccc3nc(-c4nc5ccccc5[nH]4)oc3c2)cnc1F [Example 69, 2-(1H-Benzo[d]imidazol-2-yl)-6-(6-fluoro-5-methoxypyridin-3-yl)benzo[d]oxazole bis(trifluoroacetate)]
≤ 5.30 | Cc1n[nH]c2ccc(-c3ccc4nc(-c5nc6ccccc6[nH]5)oc4c3)cc12 [Example 50, 2-(1H-Benzimidazol-2-yl)-6-(3-methyl-1H-indazol-5-yl)-1,3-benzoxazole]
≤ 5.30 | c1ccc2[nH]c(-c3nc4ccc(-c5ccc6[nH]ncc6c5)cc4o3)nc2c1 [Example 49, 2-(1H-Benzimidazol-2-yl)-6-(1H-indazol-5-yl)-1,3-benzoxazole]
